“Also recorded” adds a separate entry of the source. Read-outs that look alike come from different tables or passages of the source.
Legend:
[1] = biological target: T1, Giardia flavohemoglobin (gFlHb) (Giardia intestinalis, UniProt E2RTZ4); experiment: biochemical
T1 sequence (E2RTZ4 1-458): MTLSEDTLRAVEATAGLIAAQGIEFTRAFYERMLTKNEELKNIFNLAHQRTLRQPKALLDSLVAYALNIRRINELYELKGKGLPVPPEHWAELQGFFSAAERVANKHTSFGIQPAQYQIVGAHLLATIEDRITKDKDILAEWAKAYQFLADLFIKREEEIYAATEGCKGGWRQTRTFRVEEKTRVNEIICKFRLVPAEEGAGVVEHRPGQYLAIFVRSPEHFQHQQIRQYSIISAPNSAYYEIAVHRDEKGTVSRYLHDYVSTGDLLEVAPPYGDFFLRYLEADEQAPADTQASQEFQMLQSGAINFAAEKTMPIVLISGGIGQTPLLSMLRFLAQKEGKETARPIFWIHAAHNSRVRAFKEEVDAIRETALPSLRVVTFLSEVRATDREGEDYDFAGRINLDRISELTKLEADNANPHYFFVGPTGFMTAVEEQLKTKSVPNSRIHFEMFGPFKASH
Method: To determine NOD activity, Michaelis constant, and enzyme inhibition, rate assays were performed on a World Precision Instruments free radical analyzer (WPI, Sarasota, FL, USA) equipped with an NO-sensitive electrode and a temperature probe, connected to an analog digital converter controlled by Labscribe software, version 4 (iWorx, Dover, NH, USA).
Assays were conducted on a 6 mL scale in cropped 50 mL Falcon tubes in a buffer containing 0.1 M Bis-Tris (pH 6.5) and 100 μM NADH. To minimize protein adhesion to the walls of the chamber, 0.25 mg/mL bovine serum albumin (BSA; Fisher Scientific, Ottawa, ON, Canada) was added. […] Reactions were run at 37 °C in a stirred cell block heater with a four-placed machined aluminum block that matched the taper of the Falcon tubes. With this block arrangement up to four assay solutions could be warmed to the desired temperature beforehand. Upon thermal equilibration to 37 °C, the NO donor compound PROLI-NONOate (Cayman Chemical, Ann Arbor, MI, USA) prepared in 10 mM NaOH was added; 2 moles of NO are released per mole of donor. At the peak of NO release, which occurred within several seconds, flavohemoglobin and FAD were added to a final concentration of 2 nM and 10 nM, respectively. NOD activity was measured as the initial rate of NO signal decrease over the first 15 to 30 s of the reaction. […] Rate data were fitted to the Michaelis–Menten equation by nonlinear regression using Graphpad Prism software, version 9.4.1 (Dotmatics, Boston MA, USA).
(§1) The inhibitor was included in the assay solution before the addition of PROLI-NONOate. Inhibitors were also preincubated in the enzyme stock solutions at the same concentration. […] All inhibition experiments were done using the same enzyme preparations. Each assay at a particular concentration of inhibitor was measured in triplicate or more. […] To determine inhibition constants Ki, rate data obtained at different inhibitor concentrations were fit to the equation for non-competitive inhibition nonlinear regression (Equation (1)) using Graphpad Prism software. (1) v=Vmax/(Km,NO+[NO])1+[I]/Ki

[2] = biological target: T2, E. coli flavohemoglobin (Hmp) (Escherichia coli, UniProt P24232); experiment: Nitric oxide dioxygenase (NOD) inhibition assay, Hmp; type: biochemical; details: for TN (turnover number from the inhibition fit), Hmp / Ki: pH 6.5, 37 °C
Method: as §1

[3] = biological target: T1, Giardia flavohemoglobin (gFlHb); experiment: NOD activity and Michaelis constants, gFlHb; type: biochemical; details: pH 6.5, 37 °C
[4] = biological target: T2, E. coli flavohemoglobin (Hmp); design: method as in PMID 10777548; details: 37 °C and pH 7; cited from earlier work
[5] = biological target: ferric Hmp (Escherichia coli, UniProt P24232); details: optical titration, 0.1 M Bis-Tris pH 6.5
Method: (§2) Titrations of ferric gFlHb and Hmp were performed in 0.1 M Bis-Tris buffer (BioShop, Burlington, ON, Canada) pH 6.5 on a Cary 400 Bio UV-visible spectrophotometer (Agilent Technologies, Mississauga, ON, Canada).

[6] = biological target: ferric gFlHb (Giardia intestinalis, UniProt E2RTZ4); details: read-out: Binding constant KD, ferric gFlHb; optical titration, 0.1 M Bis-Tris pH 6.5, 3.5 μM flavohemoglobin, nitrite 0 to 750 μM
Method: as §2

[7] = biological target: T1, Giardia flavohemoglobin (gFlHb); details: cited from earlier work
[8] = pH 6.5, 37 °C, 100 μM NADH, 1 μM NO
[9] = pH 6.5, 37 °C, 100 μM NADH, 1 μM NO, imidazole and nitrite: Ki of the inhibitor-sensitive phase of a biphasic fit, read-out: Nitric oxide dioxygenase inhibition constant Ki, gFlHb

T2 sequence (P24232 whole entry): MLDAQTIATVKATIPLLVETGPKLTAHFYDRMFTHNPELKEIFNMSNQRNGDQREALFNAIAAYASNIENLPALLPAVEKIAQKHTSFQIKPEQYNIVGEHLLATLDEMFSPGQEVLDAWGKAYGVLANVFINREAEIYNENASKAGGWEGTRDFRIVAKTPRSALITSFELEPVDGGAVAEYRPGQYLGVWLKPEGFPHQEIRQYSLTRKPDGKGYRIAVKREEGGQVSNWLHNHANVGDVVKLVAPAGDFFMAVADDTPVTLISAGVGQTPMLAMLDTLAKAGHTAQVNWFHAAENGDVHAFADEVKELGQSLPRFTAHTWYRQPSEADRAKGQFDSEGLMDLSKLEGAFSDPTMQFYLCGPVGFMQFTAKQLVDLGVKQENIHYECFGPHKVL
Chain of ferric Hmp (P24232 whole entry): as above

## c1c[nH]cn1 [Imidazole, imidazole]
[1]; [8]
  TN (turnover number from the inhibition fit), gFlHb: 22 ± 1 s⁻¹
[1]; [9]
  Ki: 20 ± 6 µM
[2]; 100 μM NADH, 1 μM NO
  TN (turnover number from the inhibition fit), Hmp: 33 ± 1 s⁻¹
[2]; read-out: Nitric oxide dioxygenase inhibition constant Ki, Hmp, 100 μM NADH, 1 μM NO, imidazole: Ki of the inhibitor-sensitive phase of a biphasic fit
  Ki: 69 ± 10 µM

## Cn1ccnc1 [1-methylimidazole]
[1]
  Ki: 1200 ± 300 µM
[1]; Inhibition constant, gFlHb (bound), NOD inhibition, pH 6.5, 37 °C
  Ki: > 1000 µM
[1]; [8]
  TN (turnover number from the inhibition fit), gFlHb: 25 ± 1 s⁻¹
[2]; Inhibition constant, Hmp (bound), NOD inhibition
  Ki: > 1000 µM
[2]; Nitric oxide dioxygenase inhibition constant Ki, Hmp, 100 μM NADH, 1 μM NO, imidazole: Ki of the inhibitor-sensitive phase of a biphasic fit
  Ki: 1400 ± 250 µM
[2]; 100 μM NADH, 1 μM NO
  TN (turnover number from the inhibition fit), Hmp: 38 ± 2 s⁻¹

## nitric oxide [NO]
[3]; NADH held at 100 μM, NO up to 3 μM
  Michaelis constant KmNO, gFlHb: 0.65 ± 0.09 µM
[4]
  Michaelis constants of Hmp (KmNO, KmNADH, KmO2): 0.28 µM

## O=NO [Nitrite, nitrite]
[5]
  Optical differences of Hmp in the presence of nitrite (KD): too small to permit any such calculation
[1]; [8]
  TN (turnover number from the inhibition fit), gFlHb: 23 ± 1 s⁻¹
[1]; [9]
  Ki: 32 ± 12 µM
[2]; concentrations up to 2 mM
  Effect on NOD activity of Hmp: not significantly affected; also recorded: no significant effect
[6]
  Kd: 180 ± 20 µM

## NC(=O)C1=CN([C@@H]2O[C@H](COP(=O)(O)OP(=O)(O)OC[C@H]3O[C@@H](n4cnc5c(N)ncnc54)[C@H](O)[C@@H]3O)[C@@H](O)[C@H]2O)C=CC1 [NADH, nicotinamide adenine dinucleotide]
[3]; NO held at 2 μM, NADH up to 200 μM
  Michaelis constant KmNADH, gFlHb: 22 ± 4 µM
[4]
  Michaelis constants of Hmp (KmNO, KmNADH, KmO2): 4.8 µM

## O=O [oxygen]
[7]
  Michaelis constant of gFlHb for oxygen: 22 ± 7 µM
[4]
  Michaelis constants of Hmp (KmNO, KmNADH, KmO2): approximately 100 μM

— PMC11206828, “Catalytic Differences between Flavohemoglobins of Giardia intestinalis and E. coli” (Pathogens, 2024)
